Our source for the Activity values is ChEMBL document CHEMBL5257089, “Gamabufotalin Induces Apoptosis and Cytoprotective Autophagy through the mTOR Signaling Pathway in Hepatocellular Carcinoma” (J Nat Prod, 2023).

The test system of the experiment is Huh-7. Kind of experiment: Induction of apoptosis in human Huh-7 cells assessed as necrotic cells at 10 nM incubated for 48 hrs by Annexin V-FITC/PI staining based flow cytometry method (reference value: 1.0%). Type of experiment: functional.

As to `CCN(CC)CCCC(C)Nc1ccnc2cc(Cl)ccc12` (stereo unspecified) [CHLOROQUINE], the Activity stood at 1.9%.
